Values of other authors in patent US7588929B2, “Production of bacteriophage compositions for use in phage therapy” (Phage Biopharm LLC, priority 2002, dated 2009).

tested on: phage-2 inactivation by BI-LPS; conditions: inactivation 95% in controls without sugar

Structure (SMILES) | concentration reducing inactivation to 50%
O=CC[C@@H](O)[C@H](O)[C@H](O)CO [2-deoxy-D-glucose] | 1 M
O=C[C@H](O)[C@@H](O)[C@@H](O)[C@H](O)CO [D-galactose] | about 1.4 M
N[C@H]1C(O)O[C@H](CO)[C@@H](O)[C@@H]1O (stereo partly drawn) [D-glucosamine] | 0.25-0.3 M
O=C[C@H](O)[C@@H](O)[C@H](O)[C@H](O)CO [D-glucose] | 1 M
O=C[C@@H](O)[C@@H](O)[C@H](O)[C@H](O)CO [D-mannose] | 1 M
O=C[C@H](O)[C@@H](O)[C@H](O)CO [D-xylose] | about 1.4 M
C[C@H](O)[C@H](O)[C@@H](O)[C@@H](O)C=O [L-rhamnose] | 1 M
CC(=O)N[C@H]1C(O)O[C@H](CO)[C@@H](O)[C@@H]1O (stereo partly drawn) [N-acetyl-D-glucosamine] | about 1.4 M
